Assay results taken from patent US20260108614A1, “IMMOBILIZED ENDOGLYCOSIDASE FUSION PROTEIN AND USE THEREOF” (GENEQUANTUM HEALTHCARE (SUZHOU) CO., LTD., priority 2022, published 2026).
Like-named read-outs stand apart in the source and are kept apart here. Square brackets hold non-standard residues; d marks the D form. Peptide text beside a SMILES is read from it. * marks the point of attachment. Dolaproine = CO[C@@H]([C@@H]1CCCN1)[C@@H](C)C(=O)O; Dil = CC[C@H](C)[C@H](NC)[C@@H](CC(=O)O)OC; X1 = C[C@@H](N*)[C@@H](O)c1ccccc1; NMeV = CN[C@H](C(=O)O)C(C)C

Key:
[1] = test system: FaDu (human throat cancer cell); test: Tumor cell proliferation inhibition, FaDu; assay type: cell-based; settings: Table 7; TROP2-positive; "—" = undetected; read-out: Inhibitory effect on proliferation of Tumor Cells (IC50, nM), FaDu
Experimental: (§1) 1) ErbB2/Her2-positive human breast cancer cells BT-474, ErbB2/Her2-positive human gastric cancer cells NCI-N87 and ErbB2/Her2-negative human liver cancer cells HepG2 were inoculated into a 96-well cell plate at 100 μl/well (1000 to 10000 cells), and incubated overnight in a cell incubator under the conditions of 37° C., 5% CO2, and 100% humidity.
(§2) Incubation was further performed at 37° C. for 72 to 120 h.
(§3) 3) The cell plate was removed from the 37° C. cell incubator, and equilibrated for about 30 min to room temperature. 100 μl of CellTiter Glo reagent was added into each well, a shaker shook for 2 min, followed by standing in a dark place at room temperature for 10 min, and a relative light unit (RLU) was measured with an MD M4 microplate reader.
(§4) BxPC-3, FaDu, HepG2 and other human tumor cells were selected.
(§5) TROP2-positive human tumor cells such as BxPC-3 (human pancreatic cancer cell) and FaDu (human throat cancer cell), and TROP2-negative tumor cells such as HepG2 (human liver cancer cell) were selected.

[2] = test system: TROP2-positive cells; test: Tumor cell proliferation inhibition, TROP2-positive cells as a group; assay type: cell-based, human; settings: Example 19; BxPC-3 and FaDu
Experimental: as §1, §2, §3, §4, §5

[3] = test system: BxPC-3 (human pancreatic cancer cell); test: Tumor cell proliferation inhibition, BxPC-3; assay type: cell-based; settings: Table 7; TROP2-positive; "—" = undetected; read-out: Inhibitory effect on proliferation of Tumor Cells (IC50, nM), BxPC-3
Experimental: as §1, §2, §3, §4, §5

[4] = test system: ErbB2/Her2-positive human gastric cancer cells NCI-N87; test: Tumor cell proliferation inhibition (CellTiter Glo), NCI-N87; assay type: cell-based; settings: Table 3; incubation 72 to 120 h; "—" = undetected; read-out: Inhibitory effect on proliferation of Tumor Cells (IC50, nM), NCI-N87
Experimental: as §1, §2, §3

[5] = test system: human liver cancer cells HepG2; test: Tumor cell proliferation inhibition (CellTiter Glo), HepG2; assay type: cell-based; settings: "—" = undetected, read-out: Inhibitory effect on proliferation of Tumor Cells (IC50, nM), HepG2
Experimental: as §1, §2, §3, §4, §5

[6] = test system: ErbB2/Her2-positive cells; test: Tumor cell proliferation inhibition, ErbB2/Her2-positive cells as a group; assay type: cell-based, human; settings: Example 9; BT-474 and NCI-N87
[7] = test system: ErbB2/Her2-positive human breast cancer cells BT-474; test: Tumor cell proliferation inhibition (CellTiter Glo), BT-474; assay type: cell-based; settings: Table 3; incubation 72 to 120 h; "—" = undetected; read-out: Inhibitory effect on proliferation of Tumor Cells (IC50, nM), BT-474
Experimental: as §1, §2, §3

Structure (SMILES): CC[C@H](C)[C@@H]([C@@H](CC(=O)N1CCC[C@H]1[C@H](OC)[C@@H](C)C(=O)N[C@H](C)[C@@H](O)c1ccccc1)OC)N(C)C(=O)[C@@H](NC(=O)[C@@H](NC)C(C)C)C(C)C [MMAE, monomethylauristatin E, reference compound] (H-[NMeV]V[Dil][Dolaproine]-X1)
- IC50 [1]: 0.167 nM
- inhibitory effect on proliferation of the TROP2-positive cells (in words) [2]: obvious inhibitory effect
- IC50 [3]: 0.388 nM
- IC50 [4]: 0.248 nM
- IC50 ([5]; Table 3, ErbB2/Her2-negative cells, incubation 72 to 120 h): 0.567 nM
- IC50 ([5]; Table 7, TROP2-negative): 0.398 nM
- inhibitory effect on proliferation of the ErbB2/Her2-positive cells (in words) [6]: obvious inhibitory effect
- IC50 [7]: 0.272 nM
